Reference: ChEMBL document CHEMBL1136936, “Discovery of N-{N-[(3-cyanophenyl)sulfonyl]-4(R)-cyclobutylamino-(L)-prolyl}-4-[(3',5'-dichloroisonicotinoyl) amino]-(L)-phenylalanine (MK-0668), an extremely potent and orally active antagonist of very late antigen-4” (J Med Chem, 2009)
pIC50: −log10 of the molar value.

Assays:
[1] = biological target: T1, Integrin alpha-4 (Homo sapiens, UniProt P13612); test: Displacement of [125I]-(S)-2-((2S,4R)-4-(azetidin-1-yl)-1-(3-iodophenylsulfonyl)pyrrolidine-2-carboxamido)-3-(4-(3,5-dichloroisonicotinamido)phenyl)propanoic acid from VLA4 in human Jurkat cells washed with Hepes buffer by competitive binding assay; assay type: cell-based
T1 sequence (P13612 whole entry): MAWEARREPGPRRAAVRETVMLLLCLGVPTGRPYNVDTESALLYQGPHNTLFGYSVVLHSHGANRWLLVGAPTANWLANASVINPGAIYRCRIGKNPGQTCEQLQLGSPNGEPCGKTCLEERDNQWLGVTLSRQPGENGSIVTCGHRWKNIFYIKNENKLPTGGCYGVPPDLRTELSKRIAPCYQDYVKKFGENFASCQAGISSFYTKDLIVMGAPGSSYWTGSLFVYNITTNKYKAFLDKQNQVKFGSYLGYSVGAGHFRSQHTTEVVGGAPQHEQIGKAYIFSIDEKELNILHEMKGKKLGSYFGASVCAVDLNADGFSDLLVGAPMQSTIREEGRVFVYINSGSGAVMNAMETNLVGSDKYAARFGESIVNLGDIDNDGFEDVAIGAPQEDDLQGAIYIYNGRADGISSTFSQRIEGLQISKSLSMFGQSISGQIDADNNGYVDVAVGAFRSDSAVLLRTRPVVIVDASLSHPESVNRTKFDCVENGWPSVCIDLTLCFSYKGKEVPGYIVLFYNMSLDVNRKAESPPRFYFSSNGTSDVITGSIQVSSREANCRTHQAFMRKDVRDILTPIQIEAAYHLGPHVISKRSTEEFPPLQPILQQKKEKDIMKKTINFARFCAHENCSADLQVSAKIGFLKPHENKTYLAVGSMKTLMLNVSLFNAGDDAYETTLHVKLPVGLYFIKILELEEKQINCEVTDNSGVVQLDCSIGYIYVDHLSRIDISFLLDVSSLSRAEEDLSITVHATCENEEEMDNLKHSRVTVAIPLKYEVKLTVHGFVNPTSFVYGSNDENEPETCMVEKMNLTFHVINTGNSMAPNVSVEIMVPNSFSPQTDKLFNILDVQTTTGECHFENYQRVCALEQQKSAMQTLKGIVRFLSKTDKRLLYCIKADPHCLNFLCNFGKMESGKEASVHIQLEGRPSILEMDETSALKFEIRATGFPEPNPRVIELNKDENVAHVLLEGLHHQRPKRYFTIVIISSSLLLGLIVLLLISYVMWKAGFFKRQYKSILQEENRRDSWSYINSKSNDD

[2] = biological target: T1, Integrin alpha-4; test: Displacement of [125I]-(S)-2-((2S,4R)-4-(azetidin-1-yl)-1-(3-iodophenylsulfonyl)pyrrolidine-2-carboxamido)-3-(4-(3,5-dichloroisonicotinamido)phenyl)propanoic acid from VLA4 in human whole blood by competitive binding assay; assay type: tissue-based
[3] = tested on: Rattus norvegicus; test: Ex vivo receptor occupancy at VLA4 in rat at 0.5 mg/kg, iv after 8 hrs by [125I]- -(S)-2-((2S,4R)-4-(azetidin-1-yl)-1-(3-iodophenylsulfonyl)pyrrolidine-2-carboxamido)-3-(4-(3,5-dichloroisonicotinamido)phenyl)propanoic acid competitive binding assay; assay type: functional
[4] = Plasma Clearance in rat at 0.5 mg/kg, iv; assay type: ADME, organism-based; parameters: dose 0.5 mg/kg, route intravenous
[5] = Half life in rat at 0.5 mg/kg, iv; assay type: ADME, organism-based; parameters: dose 0.5 mg/kg, route intravenous; details: in vivo
[6] = tested on: Rattus norvegicus; test: Tmin in rat at 0.5 mg/kg, iv; assay type: ADME, organism-based; parameters: dose 0.5 mg/kg, route intravenous; details: in vivo
[7] = tested on: Canis familiaris; test: Ex vivo receptor occupancy at VLA4 in dog at 0.75 mg/kg, iv after 8 hrs by [125I]- -(S)-2-((2S,4R)-4-(azetidin-1-yl)-1-(3-iodophenylsulfonyl)pyrrolidine-2-carboxamido)-3-(4-(3,5-dichloroisonicotinamido)phenyl)propanoic acid competitive binding assay; assay type: functional, Canis lupus familiaris
[8] = Plasma Clearance in dog at 0.75 mg/kg, iv; assay type: ADME, organism-based, Canis lupus familiaris; parameters: dose 0.75 mg/kg, route intravenous
[9] = Half life in dog at 0.75 mg/kg, iv; assay type: ADME, organism-based, Canis lupus familiaris; parameters: dose 0.75 mg/kg, route intravenous; details: in vivo
[10] = tested on: Canis familiaris; test: Tmin in dog at 0.75 mg/kg, iv; assay type: ADME, organism-based, Canis lupus familiaris; parameters: dose 0.75 mg/kg, route intravenous; details: in vivo
[11] = tested on: Rhesus monkey; test: Ex vivo receptor occupancy at VLA4 in rhesus monkey at 0.75 mg/kg, iv after 8 hrs by [125I]- -(S)-2-((2S,4R)-4-(azetidin-1-yl)-1-(3-iodophenylsulfonyl)pyrrolidine-2-carboxamido)-3-(4-(3,5-dichloroisonicotinamido)phenyl)propanoic acid competitive binding assay; assay type: functional, Macaca mulatta
[12] = Plasma Clearance in rhesus monkey at 0.75 mg/kg, iv; assay type: ADME, organism-based, Macaca mulatta; parameters: dose 0.75 mg/kg, route intravenous
[13] = Half life in rhesus monkey at 0.75 mg/kg, iv; assay type: ADME, organism-based, Macaca mulatta; parameters: dose 0.75 mg/kg, route intravenous; details: in vivo
[14] = tested on: Rhesus monkey; test: Tmin in rhesus monkey at 0.75 mg/kg, iv; assay type: ADME, organism-based, Macaca mulatta; parameters: dose 0.75 mg/kg, route intravenous; details: in vivo
[15] = tested on: Rattus norvegicus; test: Ex vivo receptor occupancy at VLA4 in rat at 1 mg/kg, po after 8 hrs by [125I]- -(S)-2-((2S,4R)-4-(azetidin-1-yl)-1-(3-iodophenylsulfonyl)pyrrolidine-2-carboxamido)-3-(4-(3,5-dichloroisonicotinamido)phenyl)propanoic acid competitive binding assay; assay type: functional
[16] = biological target: Integrin alpha-4 (Homo sapiens) (UniProt P13612); test: Binding affinity to human VLA4 at 37 degC after 3 hrs; parameters: concentration or dose not given beside the values
[17] = biological target: Integrin alpha-4 (Homo sapiens) (UniProt P13612); test: Binding affinity to human VLA4 at 37 degC after 1 hr
[18] = tested on: Rattus norvegicus; test: Ex vivo receptor occupancy at VLA4 in rat at 5 mg/kg, po after 12 hrs by [125I]- -(S)-2-((2S,4R)-4-(azetidin-1-yl)-1-(3-iodophenylsulfonyl)pyrrolidine-2-carboxamido)-3-(4-(3,5-dichloroisonicotinamido)phenyl)propanoic acid competitive binding assay; assay type: functional
[19] = tested on: Rattus norvegicus; test: Tmin in rat at 5 mg/kg, po; assay type: ADME, organism-based; parameters: dose 5 mg/kg, route oral; details: in vivo
[20] = tested on: Canis familiaris; test: Ex vivo receptor occupancy at VLA4 in dog at 5 mg/kg, po after 12 hrs by [125I]- -(S)-2-((2S,4R)-4-(azetidin-1-yl)-1-(3-iodophenylsulfonyl)pyrrolidine-2-carboxamido)-3-(4-(3,5-dichloroisonicotinamido)phenyl)propanoic acid competitive binding assay; assay type: functional, Canis lupus familiaris
[21] = tested on: Canis familiaris; test: Tmin in dog at 5 mg/kg, po; assay type: ADME, organism-based, Canis lupus familiaris; parameters: dose 5 mg/kg, route oral; details: in vivo
[22] = tested on: Rhesus monkey; test: Ex vivo receptor occupancy at VLA4 in rhesus monkey at 5 mg/kg, po after 8 hrs by [125I]- -(S)-2-((2S,4R)-4-(azetidin-1-yl)-1-(3-iodophenylsulfonyl)pyrrolidine-2-carboxamido)-3-(4-(3,5-dichloroisonicotinamido)phenyl)propanoic acid competitive binding assay; assay type: functional, Macaca mulatta
[23] = tested on: Rhesus monkey; test: Tmin in rhesus monkey at 5 mg/kg, po; assay type: ADME, organism-based, Macaca mulatta; parameters: dose 5 mg/kg, route oral; details: in vivo
[24] = biological target: Cytochrome P450 3A4 (Homo sapiens, UniProt P08684); test: Inhibition of human CYP3A4; assay type: ADME
Cytochrome P450 3A4, sequence (P08684 whole entry): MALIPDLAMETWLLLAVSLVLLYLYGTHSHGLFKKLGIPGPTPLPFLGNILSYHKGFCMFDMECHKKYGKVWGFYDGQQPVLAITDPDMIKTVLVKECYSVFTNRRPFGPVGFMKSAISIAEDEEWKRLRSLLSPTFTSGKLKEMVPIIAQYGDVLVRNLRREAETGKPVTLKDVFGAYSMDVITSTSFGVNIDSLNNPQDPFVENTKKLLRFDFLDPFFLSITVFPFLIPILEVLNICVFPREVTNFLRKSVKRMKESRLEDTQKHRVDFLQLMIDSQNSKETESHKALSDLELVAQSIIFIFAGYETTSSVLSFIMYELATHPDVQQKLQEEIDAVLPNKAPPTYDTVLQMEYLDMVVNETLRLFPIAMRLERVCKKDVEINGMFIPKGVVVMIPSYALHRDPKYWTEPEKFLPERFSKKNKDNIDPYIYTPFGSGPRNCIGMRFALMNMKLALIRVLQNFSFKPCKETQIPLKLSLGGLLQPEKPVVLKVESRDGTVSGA

[25] = Plasma Clearance in dog at 5 mg/kg, po; assay type: ADME, organism-based, Canis lupus familiaris; parameters: dose 5 mg/kg, route oral
[26] = Half life in dog at 5 mg/kg, po; assay type: ADME, organism-based, Canis lupus familiaris; parameters: dose 5 mg/kg, route oral; details: in vivo
[27] = Plasma Clearance in rhesus monkey at 5 mg/kg, po; assay type: ADME, organism-based, Macaca mulatta; parameters: dose 5 mg/kg, route oral
[28] = Half life in rhesus monkey at 5 mg/kg, po; assay type: ADME, organism-based, Macaca mulatta; parameters: dose 5 mg/kg, route oral; details: in vivo
[29] = tested on: Liver microsomes; test: Metabolic stability in human liver microsomes after 1 hr; assay type: ADME, Microsome
[30] = tested on: Liver microsomes; test: Metabolic stability in rat liver microsomes after 1 hr; assay type: ADME, Microsome
[31] = biological target: Integrin alpha-4 (Homo sapiens) (UniProt P13612); test: Inhibition of human VLA4
[32] = species: Canis lupus familiaris; test: Inhibition of dog VLA4
[33] = species: Macaca mulatta; test: Inhibition of rhesus monkey VLA4
[34] = species: Rattus norvegicus; test: Inhibition of rat VLA4
[35] = Plasma Clearance in rat at 5 mg/kg, po; assay type: ADME, organism-based; parameters: dose 5 mg/kg, route oral
[36] = Half life in rat at 5 mg/kg, po; assay type: ADME, organism-based; parameters: dose 5 mg/kg, route oral; details: in vivo

O=C(Nc1ccc(C[C@H](NC(=O)[C@@H]2C[C@@H](N3CCC3)CN2S(=O)(=O)c2cc(Cl)cc(Cl)c2)C(=O)O)cc1)c1c(Cl)cncc1Cl
pIC50 [1]: 10.10
pIC50 [2]: 9.70
Activity [3]: 64%
clearance [4]: 65 mL/min/kg
half-life [5]: 1 h
Tmin [6]: 2 h
Activity [7]: 72%
clearance [8]: 29 mL/min/kg
half-life [9]: 0.5 h
Tmin [10]: 1 h
Activity [11]: 87%
clearance [12]: 33 mL/min/kg
half-life [13]: 1.1 h
Tmin [14]: 6 h
Activity [15]: 46%
Activity [16]: 77%

O=C(Nc1ccc(C[C@H](NC(=O)[C@@H]2C[C@@H](NC3CCC3)CN2S(=O)(=O)c2cc(Cl)cc(Cl)c2)C(=O)O)cc1)c1c(Cl)cncc1Cl
pIC50 [1]: 10.00
pIC50 [2]: 10.00
Activity [16]: 82%

N[C@@H]1C[C@@H](C(=O)N[C@@H](Cc2ccc(NC(=O)c3c(Cl)cncc3Cl)cc2)C(=O)O)N(S(=O)(=O)c2cc(Cl)cc(Cl)c2)C1
pIC50 [1]: 10.05
pIC50 [2]: 9.40
Activity [17]: 47%

O=C(Nc1ccc(C[C@H](NC(=O)[C@@H]2C[C@@H](N3CCCCC3)CN2S(=O)(=O)c2cc(Cl)cc(Cl)c2)C(=O)O)cc1)c1c(Cl)cncc1Cl
pIC50 [1]: 10.05
pIC50 [2]: 9.52
Activity [16]: 89%

C[C@@]1(C(=O)N[C@@H](Cc2ccc(NC(=O)c3c(Cl)cncc3Cl)cc2)C(=O)O)CCCN1S(=O)(=O)c1cc(Cl)cc(Cl)c1
pIC50 [1]: 9.96
pIC50 [2]: 7.31

O=C(Nc1ccc(C[C@H](NC(=O)[C@@H]2C[C@@H](N3CCCC3)CN2S(=O)(=O)c2cc(Cl)cc(Cl)c2)C(=O)O)cc1)c1c(Cl)cncc1Cl
pIC50 [1]: 10.00
pIC50 [2]: 9.70
Activity [16]: 82%

CCOC(=O)[C@H](Cc1ccc(NC(=O)c2c(Cl)cncc2Cl)cc1)NC(=O)[C@@H]1C[C@@H](NC2CCC2)CN1S(=O)(=O)c1cccc(C#N)c1
Activity [18]: 77%
Tmin [19]: 0 h
Activity [20]: 97%
Tmin [21]: 12 h
Activity [22]: 95%
Tmin [23]: 0 h
pIC50 [24]: 5.77

O=C(Nc1ccc(C[C@H](NC(=O)[C@@H]2CCCN2S(=O)(=O)c2cc(Cl)cc(Cl)c2)C(=O)O)cc1)c1c(Cl)cncc1Cl
pIC50 [1]: 10.15
pIC50 [2]: 8.82
Activity [17]: 62%

CCOC(=O)[C@H](Cc1ccc(NC(=O)c2c(Cl)cncc2Cl)cc1)NC(=O)[C@@H]1C[C@@H](NC2CCC2)CN1S(=O)(=O)c1cc(Cl)cc(Cl)c1
Activity [15]: 51%
pIC50 [24]: > 6.40

CCOC(=O)[C@H](Cc1ccc(NC(=O)c2c(Cl)cncc2Cl)cc1)NC(=O)[C@@H]1C[C@@H](N2CCC2)CN1S(=O)(=O)c1cc(Cl)cc(Cl)c1
Activity [15]: 62%

N#Cc1cccc(S(=O)(=O)N2C[C@H](NC3CCC3)C[C@H]2C(=O)N[C@@H](Cc2ccc(NC(=O)c3c(Cl)cncc3Cl)cc2)C(=O)O)c1
Activity [18]: 67%
Tmin [19]: 0 h
Activity [20]: 83%
CL/F [25]: 29 mL/min/kg
half-life [26]: 0.5 h
Tmin [21]: 6 h
Activity [22]: 88%
CL/F [27]: 33 mL/min/kg
half-life [28]: 1.1 h
Tmin [23]: 0 h
Stability [29]: 56 pmol/mg
Stability [30]: 39 pmol/mg
IC90 [31]: 0.13 nM
IC90 [32]: 0.19 nM
IC90 [33]: 0.21 nM
IC90 [34]: 0.4 nM
Activity [16]: 64%
CL/F [35]: 65 mL/min/kg
half-life [36]: 1 h

O=C(Nc1ccc(C[C@H](NC(=O)[C@@H]2C[C@H](N3CCC3)CN2S(=O)(=O)c2cc(Cl)cc(Cl)c2)C(=O)O)cc1)c1c(Cl)cncc1Cl
pIC50 [1]: 9.70
Activity [17]: 15%
